Assay results from ChEMBL document CHEMBL1133145, “Novel photoreactive cinnamic acid analogues to elucidate phenylalanine ammonia-lyase” (Bioorg Med Chem Lett, 2000).

Assay: Inhibitory activity against Phenylalanine Ammonia-lyase (PAL)

Ki [µM]	SMILES
520	O=C(O)/C=C/c1ccc(C2(C(F)(F)F)N=N2)cc1OCCOCCOCCNC(=O)CCCC[C@@H]1SCC2NC(=O)NC21 (some centres not stated)
240	COc1cc(C2(C(F)(F)F)N=N2)ccc1/C=C/C(=O)O
